The results in this text go back to publication PMC4077706, “Lifting the Mask: Identification of New Small Molecule Inhibitors of Uropathogenic Escherichia coli Group 2 Capsule Biogenesis” (PLoS ONE, 2014).

SMILES strings stand for the structures. Like-named read-outs stand apart in the source and are kept apart here.

One data set has as its target T1, Interleukin IL-1 (Mus musculus, UniProt P13504).
T1 construct: Mouse 3T3-SWISS cells; host or cells: Swiss 3T3 mouse fibroblasts
Put plainly: Radioligand binding 243520. Particulars: 10 µM.

The conditions of data set [1]: Mouse.
The next data set has as its target T2, Dopamine D3 (Homo sapiens, UniProt P35462).
T2 construct: host or cells: CHO cells
It is filed as binding. Particulars: 10 µM.

For the next data set, the system named is Phorbol Ester. As to the kind of experiment: Radioligand binding 264500. Set-up: species or system mouse. The settings on record: 10 µM.
The test system of data set [2] is Glutamate, NMDA, Phencyclidine. Put plainly: Radioligand binding 233000. The settings on record: 10 µM. Also on record: species or system rat.
Another data set has as its system Purinergic P2Y. As to the kind of experiment: Radioligand binding 268810. Set-up: species or system rat. Particulars: 10 µM.
For a further data set, the target named is T3, Adrenergic β2 (Homo sapiens, UniProt P07550).
T3 construct: host or cells: CHO cells
It is filed as binding. Particulars: 10 µM.

The next data set addresses Opiate δ1 (OP1, DOP) (Homo sapiens, UniProt P41143). It counts as binding. Set-up: host or cells: HEK-293 cells. The settings on record: 10 µM.
Another data set deals with Cannabinoid CB1 (Homo sapiens, UniProt P21554). It is filed as binding. Particulars: 10 µM.
Chain of Cannabinoid CB1 (P21554 whole entry): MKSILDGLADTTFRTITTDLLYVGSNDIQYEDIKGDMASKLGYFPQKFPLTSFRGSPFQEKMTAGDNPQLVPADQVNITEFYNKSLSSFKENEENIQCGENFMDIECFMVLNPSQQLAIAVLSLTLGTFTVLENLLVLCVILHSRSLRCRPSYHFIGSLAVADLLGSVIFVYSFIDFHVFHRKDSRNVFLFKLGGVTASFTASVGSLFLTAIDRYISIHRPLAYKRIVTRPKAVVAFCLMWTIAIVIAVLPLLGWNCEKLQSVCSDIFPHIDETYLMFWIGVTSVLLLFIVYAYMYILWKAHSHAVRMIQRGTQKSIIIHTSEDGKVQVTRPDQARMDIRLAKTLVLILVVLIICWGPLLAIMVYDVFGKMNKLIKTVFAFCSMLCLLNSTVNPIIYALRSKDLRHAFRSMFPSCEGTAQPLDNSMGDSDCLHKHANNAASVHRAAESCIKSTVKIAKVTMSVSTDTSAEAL

T1 sequence (P13504 20-576): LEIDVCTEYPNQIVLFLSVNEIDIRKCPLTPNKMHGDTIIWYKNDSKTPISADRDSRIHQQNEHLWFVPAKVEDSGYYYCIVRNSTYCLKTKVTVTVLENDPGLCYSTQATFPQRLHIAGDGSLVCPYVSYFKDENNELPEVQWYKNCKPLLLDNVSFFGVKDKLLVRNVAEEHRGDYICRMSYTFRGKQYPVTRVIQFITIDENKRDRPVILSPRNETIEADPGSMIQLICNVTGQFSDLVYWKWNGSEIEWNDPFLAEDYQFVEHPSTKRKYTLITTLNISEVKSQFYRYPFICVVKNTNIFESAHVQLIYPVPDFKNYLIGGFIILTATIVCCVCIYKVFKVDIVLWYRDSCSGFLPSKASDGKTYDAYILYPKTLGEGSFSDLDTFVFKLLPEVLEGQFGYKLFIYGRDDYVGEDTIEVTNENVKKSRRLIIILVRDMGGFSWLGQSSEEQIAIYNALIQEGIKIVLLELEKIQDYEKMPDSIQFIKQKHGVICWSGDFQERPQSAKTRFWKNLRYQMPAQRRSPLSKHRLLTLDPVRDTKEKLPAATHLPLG
Chain of Opiate δ1 (OP1, DOP) (P41143 whole entry): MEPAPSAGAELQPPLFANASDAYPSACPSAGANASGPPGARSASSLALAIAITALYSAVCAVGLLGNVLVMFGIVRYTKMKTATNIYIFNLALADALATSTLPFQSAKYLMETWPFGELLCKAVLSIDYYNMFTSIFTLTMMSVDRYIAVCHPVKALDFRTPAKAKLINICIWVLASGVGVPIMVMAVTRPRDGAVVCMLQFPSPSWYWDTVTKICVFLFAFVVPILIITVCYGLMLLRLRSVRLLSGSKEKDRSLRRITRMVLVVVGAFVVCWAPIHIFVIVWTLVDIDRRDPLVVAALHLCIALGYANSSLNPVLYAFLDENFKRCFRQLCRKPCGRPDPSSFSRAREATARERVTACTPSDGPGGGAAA
T2 sequence (P35462 whole entry): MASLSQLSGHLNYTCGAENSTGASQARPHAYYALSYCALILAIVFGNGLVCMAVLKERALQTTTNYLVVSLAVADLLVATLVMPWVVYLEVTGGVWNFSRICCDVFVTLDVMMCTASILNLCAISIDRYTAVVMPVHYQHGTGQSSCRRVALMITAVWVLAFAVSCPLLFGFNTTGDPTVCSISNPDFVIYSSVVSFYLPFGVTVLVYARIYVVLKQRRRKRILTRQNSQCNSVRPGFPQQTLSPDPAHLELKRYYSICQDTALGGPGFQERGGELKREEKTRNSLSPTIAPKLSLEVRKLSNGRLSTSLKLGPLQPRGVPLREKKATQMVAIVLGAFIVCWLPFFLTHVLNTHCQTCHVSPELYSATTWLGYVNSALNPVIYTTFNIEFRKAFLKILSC
T3 sequence (P07550 whole entry): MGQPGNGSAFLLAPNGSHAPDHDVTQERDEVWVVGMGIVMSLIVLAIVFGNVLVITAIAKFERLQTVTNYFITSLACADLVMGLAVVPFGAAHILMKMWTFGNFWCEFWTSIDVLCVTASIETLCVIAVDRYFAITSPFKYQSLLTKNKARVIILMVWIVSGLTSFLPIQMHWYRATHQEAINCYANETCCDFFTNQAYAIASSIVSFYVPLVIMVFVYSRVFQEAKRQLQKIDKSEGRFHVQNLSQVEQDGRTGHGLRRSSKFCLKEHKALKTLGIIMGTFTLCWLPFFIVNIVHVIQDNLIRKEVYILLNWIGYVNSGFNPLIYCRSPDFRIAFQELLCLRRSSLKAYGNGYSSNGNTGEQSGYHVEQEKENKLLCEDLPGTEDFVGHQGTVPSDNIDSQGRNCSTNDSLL

For the compound `CCOc1ccc(-c2cc(NC(=O)c3c(F)cccc3F)c(C(=O)O)s2)cc1` [DU011], the “% Inh.” value at Interleukin IL-1 is on record as 4%; at Dopamine D3 it was 6%; in the data set with Phorbol Ester, 1%; in data set [2], 2%; in the data set with Purinergic P2Y, 1%; on Adrenergic β2 it was 8%. For the same compound, the “% Inh.” value at Opiate δ1 (OP1, DOP) is 10%; on Cannabinoid CB1 it was 20%. In addition, the “Plasma Stability, percent remaining at 3 hrs” value in data set [1] worked out at 78.39%. The “PAMPA Permeability Pe” value came to 14 ×10⁻⁶ cm/s (Donor pH 5.0, acceptor pH 7.4); 209 ×10⁻⁶ cm/s (Donor pH 6.2, acceptor pH 7.4); 52 ×10⁻⁶ cm/s (Donor pH 7.4, acceptor pH 7.4).
